The term IC50 denotes the concentration needed to halve the response being measured.

The source of these data is patent US7750003B2, “Compounds-943” (AstraZeneca AB, priority 2006, dated 2010).

The test system of the experiment is phosphorylation of Serine 473 in Akt in MDA-MB-468 human breast adenocarcinoma cells. Put plainly: In vitro phospho-Ser473 Akt assay (Test (c)). It is filed as cell-based. The conditions noted are these: Homo sapiens, MDA-MB-468, 2 h, MDA-MB-468 cells, 2 hours incubation; read-out: Test (c): IC50 versus Serine 473 in Akt. As for the experimental part:
(c) In Vitro Phospho-Ser473 Akt Assay
This assay determines the ability of test compounds to inhibit phosphorylation of Serine 473 in Akt as assessed using Acumen Explorer technology (Acumen Bioscience Limited), a plate reader that can be used to rapidly quantitate features of images generated by laser-scanning.
A MDA-MB-468 human breast adenocarcinoma cell line (LGC Promochem, Teddington, Middlesex, UK, Catalogue No. HTB-132) was routinely maintained at 37° C. with 5% CO2 up to a confluency of 70-90% in DMEM containing 10% heat-inactivated FCS and 1% L-glutamine.
For the assay, the cells were detached from the culture flask using ‘Accutase’ (Innovative Cell Technologies Inc., San Diego, Calif., USA; Catalogue No. AT104) using standard tissue culture methods and resuspended in media to give 1.7×10^5 cells per mL. Aliquots (90 μl) were seeded into each of the inner 60 wells of a black Packard 96 well plate (PerkinElmer, Boston, Mass., USA; Catalogue No. 6005182) to give a density of 15000 cells per well. Aliquots (90 μl) of culture media were placed in the outer wells to prevent edge effects. The cells were incubated overnight at 37° C. with 5% CO2 to allow them to adhere.
On day 2, the cells were treated with test compounds and incubated for 2 hours at 37° C. with 5% CO2. Test compounds were prepared as 10 mM stock solutions in DMSO and serially diluted as required with growth media to give a range of concentrations that were 10-fold the required final test concentrations. Aliquots (10 μl) of each compound dilution were placed in a well (in triplicate) to give the final required concentrations. As a minimum response control, each plate contained wells having a final concentration of 100 μM LY294002 (Calbiochem, Beeston, UK, Catalogue No. 440202). As a maximum response control, wells contained 1% DMSO instead of test compound. Following incubation, the contents of the plates were fixed by treatment with a 1.6% aqueous formaldehyde solution (Sigma, Poole, Dorset, UK, Catalogue No. F1635) at room temperature for 1 hour.
All subsequent aspiration and wash steps were carried out using a Tecan 96 well plate washer (aspiration speed 10 mm/sec). The fixing solution was removed and the contents of the plates were washed with phosphate-buffered saline (PBS; 50 μl; Gibco, Catalogue No. 10010015). The contents of the plates were treated for 10 minutes at room temperature with an aliquot (50 μl) of a cell permeabilisation buffer consisting of a mixture of PBS and 0.5% Tween-20. The ‘permeabilisation’ buffer was removed and non-specific binding sites were blocked by treatment for 1 hour at room temperature of an aliquot (50 μl) of a blocking buffer consisting of 5% dried skimmed milk [‘Marvel’ (registered trade mark); Premier Beverages, Stafford, GB] in a mixture of PBS and 0.05% Tween-20. The ‘blocking’ buffer was removed and the cells were incubated for 1 hour at room temperature with rabbit anti phospho-Akt (Ser473) antibody solution (50 μl per well; Cell Signalling, Hitchin, Herts, U.K., Catalogue No 9277) that had been diluted 1:500 in ‘blocking’ buffer. Cells were washed three times in a mixture of PBS and 0.05% Tween-20. Subsequently, cells were incubated for 1 hour at room temperature with Alexafluor488 labelled goat anti-rabbit IgG (50 μl per well; Molecular Probes, Invitrogen Limited, Paisley, UK, Catalogue No. A11008) that had been diluted 1:500 in ‘blocking’ buffer. Cells were washed 3 times with a mixture of PBS and 0.05% Tween-20. An aliquot of PBS (50 μl) was added to each well and the plates were sealed with black plate sealers and the fluorescence signal was detected and analysed.
Fluorescence dose response data obtained with each compound were analysed and the degree of inhibition of Serine 473 in Akt was expressed as an IC50 value.
As to `C[C@H]1COCCN1c1cc(CN2CCNC(=O)C2)nc(-c2ccc(NC(=O)NC3CC3)cc2)n1` [Example 49j, 3-cyclopropyl-1-[4-[4-[(3S)-3-methylmorpholin-4-yl]-6-[(3-oxopiperazin-1-yl)methyl]pyrimidin-2-yl]phenyl]urea], the IC50 was determined as 130 nM.
`C[C@H]1COCCN1c1cc(C(C)(C)S(C)(=O)=O)nc(-c2ccc(NC(=O)NC3CCC3)cc2)n1` [Example 24am, 3-cyclobutyl-1-[4-[4-[(3S)-3-methylmorpholin-4-yl]-6-(2-methylsulfonylpropan-2-yl)pyrimidin-2-yl]phenyl]urea]: the IC50 was 210 nM.
In the case of `C[C@H]1COCCN1c1cc(CS(=O)(=O)c2ccc(F)cc2)nc(-c2ccc(NC(=O)NCCN(C)C)cc2)n1` [Example 61e, 3-(2-dimethylaminoethyl)-1-[4-[4-[(4-fluorophenyl)sulfonylmethyl]-6-[(3S)-3-methylmorpholin-4-yl]pyrimidin-2-yl]phenyl]urea] it was 120 nM; in that of `C[C@H]1COCCN1c1cc(CS(=O)(=O)CCO)nc(-c2ccc(NC(=O)NCc3cnn(C)c3)cc2)n1` [Example 53b, 1-[4-[4-(2-hydroxyethylsulfonylmethyl)-6-[(3S)-3-methylmorpholin-4-yl]pyrimidin-2-yl]phenyl]-3-[(1-methylpyrazol-4-yl)methyl]urea], 3000 nM.
The value for `C[C@H]1COCCN1c1cc(C(C)(C)S(=O)(=O)c2ccc(F)cc2)nc(-c2ccc(NC(=O)NC3CCC3)cc2)n1` [Example 61n, 3-cyclobutyl-1-[4-[4-[2-(4-fluorophenyl)sulfonylpropan-2-yl]-6-[(3S)-3-methylmorpholin-4-yl]pyrimidin-2-yl]phenyl]urea] was 38 nM.
The value for `Cc1nnc(S(=O)(=O)Cc2cc(N3CCOC[C@@H]3C)nc(-c3ccc(NC(=O)NC4CC4)cc3)n2)s1` [Example 43g, 3-cyclopropyl-1-[4-[4-[(3S)-3-methylmorpholin-4-yl]-6-[(5-methyl-1,3,4-thiadiazol-2-yl)sulfonylmethyl]pyrimidin-2-yl]phenyl]urea] was 1900 nM; that for `CC(C)S(=O)(=O)C(C)(C)c1cc(N2CCOC[C@@H]2C)nc(-c2ccc(NC(=O)NCCCO)cc2)n1` [Example 60s, 3-(3-hydroxypropyl)-1-[4-[4-[(3S)-3-methylmorpholin-4-yl]-6-(2-propan-2-ylsulfonylpropan-2-yl)pyrimidin-2-yl]phenyl]urea] was 300 nM; that for `C[C@H]1COCCN1c1cc(CS(C)(=O)=O)nc(-c2ccc(NC(=O)Nc3cccc(=O)[nH]3)cc2)n1` [Example 22c, 1-[4-[4-[(3S)-3-methylmorpholin-4-yl]-6-(methylsulfonylmethyl)pyrimidin-2-yl]phenyl]-3-(6-oxo-1H-pyridin-2-yl)urea] was 210 nM.
In the case of `CCNC(=O)Nc1ccc(-c2nc(N3CCOC[C@@H]3C)cc(C(C)(C)S(=O)(=O)c3ccc(F)cc3)n2)cc1` [Example 61l, 1-ethyl-3-[4-[4-[2-(4-fluorophenyl)sulfonylpropan-2-yl]-6-[(3S)-3-methylmorpholin-4-yl]pyrimidin-2-yl]phenyl]urea], the IC50 was 99 nM.
In the case of `CNC(=O)Nc1ccc(-c2nc(N3CCOC[C@@H]3C)cc(C(C)(C)S(=O)(=O)c3ccc(F)cc3)n2)cc1` [Example 61k, 1-[4-[4-[2-(4-fluorophenyl)sulfonylpropan-2-yl]-6-[(3S)-3-methylmorpholin-4-yl]pyrimidin-2-yl]phenyl]-3-methyl-urea] it was 120 nM; in that of `CCNC(=O)Nc1ccc(-c2nc(CS(=O)(=O)c3ccc(F)cc3)cc(N3CCOC[C@@H]3C)n2)cc1` [Example 61a, 1-ethyl-3-[4-[4-[(4-fluorophenyl)sulfonylmethyl]-6-[(3S)-3-methylmorpholin-4-yl]pyrimidin-2-yl]phenyl]urea], 750 nM.
In the case of `CC(C)CNC(=O)Nc1ccc(-c2nc(CS(=O)(=O)c3ccc(F)cc3)cc(N3CCOC[C@@H]3C)n2)cc1` [Example 61g, 1-[4-[4-[(4-fluorophenyl)sulfonylmethyl]-6-[(3S)-3-methylmorpholin-4-yl]pyrimidin-2-yl]phenyl]-3-(2-methylpropyl)urea], the IC50 was found to be 450 nM.
